Results published in US8563730B2, “Pyrazole and fused pyrazole glucokinase activators” (Takeda San Diego, Inc., priority 2008, dated 2013).

Molecular target: T1, GK (glucokinase, residues 12-465) (Homo sapiens, UniProt P35557)
T1 construct: I.D. No. 1 corresponds to residues 12-465 of glucokinase; made in house; host or cells: DH10b-T1r E. coli
T1 sequence (P35557 with tags, fused parts or gaps isoform P35557-2): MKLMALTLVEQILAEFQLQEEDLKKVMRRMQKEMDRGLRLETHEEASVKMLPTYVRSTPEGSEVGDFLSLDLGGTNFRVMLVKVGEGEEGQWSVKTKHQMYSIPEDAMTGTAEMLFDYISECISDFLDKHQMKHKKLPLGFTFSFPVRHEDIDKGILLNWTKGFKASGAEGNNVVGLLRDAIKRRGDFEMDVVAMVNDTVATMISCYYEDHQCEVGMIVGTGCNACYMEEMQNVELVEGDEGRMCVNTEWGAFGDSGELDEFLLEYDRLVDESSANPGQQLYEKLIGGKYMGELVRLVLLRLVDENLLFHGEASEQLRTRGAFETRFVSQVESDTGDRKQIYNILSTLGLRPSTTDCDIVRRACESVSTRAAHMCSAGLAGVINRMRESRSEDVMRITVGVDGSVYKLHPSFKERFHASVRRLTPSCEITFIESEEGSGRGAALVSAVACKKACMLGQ
Experiment: enzymatic glucokinase activity assay (ATP consumption, KinaseGlo luminescence)
Format: biochemical
Conditions: 5 μM ATP, 5 mM Glucose, reported as bins; for EC50: Kact = concentration that displays 50% of the maximal increase in GK activity, 60 min, room temperature, read-out: pKact; for Emax: calculated maximal gain in GK enzyme activity at a saturating concentration of the compound, read-out: % ACTmax
Source text: The activity of compounds as glucokinase activators may be assayed in vitro, in vivo or in a cell line. Provided below is an enzymatic glucokinase activity assay.
Purified glucokinase may be obtained as follows. […] SEQ.
The expression of recombinant glucokinase protein may be carried out by transformation and growth of DH10b-T1r E. coli cells incorporating the (pFLAG-CTC) plasmid in LB media. Protein expression can be induced in this system by the addition of IPTG to the culture medium.
Recombinant protein may be isolated from cellular extracts by passage over Sepharose Q Fast Flow resin (Pharmacia). This partially purified GK extract may then be further purified by a second passage over Poros HQ10 (Applied Biosystems). The purity of GK may be determined on denaturing SDS-PAGE gel. Purified GK may then be concentrated to a final concentration of 20.0 mg/ml. After flash freezing in liquid nitrogen, the proteins can be stored at −78° C. in a buffer containing 25 mM TRIS-HCl pH 7.6, 50 mM NaCl, and 0.5 mM TCEP.
The activation properties of compounds for GK may be determined using a black 384-well-plate format under the following reaction conditions: 25 mM Hepes pH 7.2, 25 mM NaCl, 10 mM MgCl2, 0.01% Brij35, 1 mM DTT, 5 μM ATP, 5 mM Glucose 2% DMSO. The amount of ATP consumed may be determined quantitatively by addition of equal volume of luciferase reagent (luciferase+beetle luciferin—KinaseGlo Luminescent Kinase Assay kit from Promega). The luminescence intensity may be measured by using the Analyst HT from LJL Biosystems.
The reaction mixture may then be incubated at room temperature for 60 min, and quenched and developed by addition of 10 μL of luciferase reagent. Luminescence intensities of the resulting reaction mixtures may be measured after a 10 min incubation at room temperature. The luminescence intensity may be measured by using the Analyst HT from LJL Biosystems.
pKact and % ACTmax values may be calculated by non-linear curve fitting of the compound concentrations and luminescence intensities to a standard inhibition/activation equation.

Structure (SMILES) | EC50 | Emax
CC(C)(C)S(=O)(=O)c1cnn(C(CC2CCOCC2)C(=O)Nc2ncc(F)s2)c1 (centres unmarked) [Compound 49, 2-(4-(tert-butylsulfonyl)-1H-pyrazol-1-yl)-N-(5-fluorothiazol-2-yl)-3-(tetrahydro-2H-pyran-4-yl)propanamide] | 3.98 to 12.6 µM | 90 to 100%
O=C1CCC(CC(C(=O)Nc2ncc(F)s2)n2cc(S(=O)(=O)C3CC3)cn2)C1 (centres unmarked) [Compound 50, 2-(4-(cyclopropylsulfonyl)-1H-pyrazol-1-yl)-N-(5-fluorothiazol-2-yl)-3-(3-oxocyclopentyl)propanamide] | ≥ 15.8 µM | ≤ 90%
CC(C)(C)S(=O)(=O)c1cnn([C@H](CC2CCOCC2)C(=O)Nc2ncc(F)s2)c1 [Compound 52, (R)-2-(4-(tert-butylsulfonyl)-1H-pyrazol-1-yl)-N-(5-fluorothiazol-2-yl)-3-(tetrahydro-2H-pyran-4-yl)propanamide] | ≥ 15.8 µM | 90 to 100%
CC(C)(C)S(=O)(=O)c1cnn([C@@H](CC2CCOCC2)C(=O)Nc2ncc(F)s2)c1 [Compound 53, (S)-2-(4-(tert-butylsulfonyl)-1H-pyrazol-1-yl)-N-(5-fluorothiazol-2-yl)-3-(tetrahydro-2H-pyran-4-yl)propanamide] | ≥ 15.8 µM | ≤ 90%
O=C1CC[C@H](C[C@@H](C(=O)Nc2ncc(F)s2)n2cc(S(=O)(=O)C3CC3)cn2)C1 [Compound 54, (S)-2-(4-(cyclopropylsulfonyl)-1H-pyrazol-1-yl)-N-(5-fluorothiazol-2-yl)-3-((R)-3-oxocyclopentyl)propanamide] | 3.98 to 12.6 µM | ≤ 90%
O=C1CC[C@@H](C[C@@H](C(=O)Nc2ncc(F)s2)n2cc(S(=O)(=O)C3CC3)cn2)C1 [Compound 55, (S)-2-(4-(cyclopropylsulfonyl)-1H-pyrazol-1-yl)-N-(5-fluorothiazol-2-yl)-3-((S)-3-oxocyclopentyl)propanamide] | 3.98 to 12.6 µM | ≤ 90%
O=C1CC[C@H](C[C@H](C(=O)Nc2ncc(F)s2)n2cc(S(=O)(=O)C3CC3)cn2)C1 [Compound 56, (R)-2-(4-(cyclopropylsulfonyl)-1H-pyrazol-1-yl)-N-(5-fluorothiazol-2-yl)-3-((R)-3-oxocyclopentyl)propanamide] | ≥ 15.8 µM | ≤ 90%
NC(=O)c1cnc(NC(=O)C(CC2CCCC2)n2cc(S(=O)(=O)C3CC3)cn2)s1 (centres unmarked) [Compound 57] | 3.98 to 12.6 µM | 101 to 105%
O=C(Nc1cnccn1)C(CC1CCCC1)n1ncc2c(S(=O)(=O)C3CC3)cccc21 (centres unmarked) [Compound 61, 3-cyclopentyl-2-(4-(cyclopropylsulfonyl)-1H-indazol-1-yl)-N-(pyrazin-2-yl)propanamide] | 0.398 to 1.26 µM | 90 to 100%

Other lines, results leading:

EC50 | Emax | Structure (SMILES)
0.398 to 1.26 µM | ≥ 111% | O=C(Nc1ncc(Cl)s1)C(CC1CCOCC1)n1cc2cc(S(=O)(=O)C3CC3)ccc2n1 (centres unmarked) [Compound 51, N-(5-chlorothiazol-2-yl)-2-(5-(cyclopropylsulfonyl)-2H-indazol-2-yl)-3-(tetrahydro-2H-pyran-4-yl)propanamide]
≥ 15.8 µM | 101 to 105% | O=C(Nc1ncc(Cl)s1)[C@@H](CC1CCOCC1)n1cc(S(=O)(=O)C2CCCC2)cn1 [Compound 58, (R)-N-(5-chlorothiazol-2-yl)-2-(4-(cyclopentylsulfonyl)-1H-pyrazol-1-yl)-3-(tetrahydro-2H-pyran-4-yl)propanamide]
≤ 0.316 µM | 106 to 110% | O=C(Nc1ncc(Cl)s1)C(CC1CCOCC1)n1ncc2c(S(=O)(=O)C3CC3)cccc21 (centres unmarked) [Compound 59, N-(5-chlorothiazol-2-yl)-2-(4-(cyclopropylsulfonyl)-1H-indazol-1-yl)-3-(tetrahydro-2H-pyran-4-yl)propanamide]
≥ 15.8 µM | ≤ 90% | O=C(Nc1ncc(Cl)s1)C(CC1CCOCC1)n1ncc2ccc(S(=O)(=O)C3CC3)cc21 (centres unmarked) [Compound 60, N-(5-chlorothiazol-2-yl)-2-(6-(cyclopropylsulfonyl)-1H-indazol-1-yl)-3-(tetrahydro-2H-pyran-4-yl)propanamide]
